Test results published in patent US4716159A, “Pyridazino[4,3-c]-isoquinolines having anti-anxiety activity” (Gruppo Lepetit, S.p.A., priority 1983, dated 1987).

Assays:
mice [1] = experiment: anti-bicuculline test in mice; format: in vivo; conditions: for prevention of seizures (bicuculline): i.p. (highest dose tested), bicuculline 2 mg/kg s.c., compound 30 min before
Experimental: The experiments were conducted essentially following the methodology described by P. De La Mora et R. Tapia in Biochem. Pharmac. 22, 2635-2639 (1973). A dose of bicuculline (2 mg/kg, s.c.) was administered to groups of ten mice each which had been given a fixed dose of the text compound 30 minutes before treatment. […] The significance of this fact has not yet been completely clarified since it was first described only recently for two quinoline derivatives (see G. Le Fur et al., Life Sci., 28, 1439-1448 (1981)). […] The favourable pharmacological properties of the compounds of the present invention are accompanied by a generally low toxicity, as in fact the acute toxicity of the compounds of the present invention is in general from 200 to more than 600 mg/kg, i.p. In view of the above, the use of the compounds of the present invention as anticonvulsant and antianxiety agents is a further specific object of the present invention. With the term "use" it is intended to refer to all industrially applicable aspects and acts of said use, including the embodiment of the novel compounds into pharmaceutical compositions.

mice [2] = experiment: antipentylenetetrazole assay in mice; format: in vivo; conditions: for prevention of tonic extensor seizures (pentylenetetrazole): pentylenetetrazole 140 mg/kg s.c., compound 30 min before
Experimental: The antipentylenetetrazole assay in mice have been carried out by essentially following the methodology described by Berger in J. Pharm. Exptl. Ther. 104, 468, (1952). A fatal dose of pentylenetetrazole (140 mg/kg, s.c.) was administered to groups of ten mice each, treated, 30 minutes before the administration of the convulsant agent, with a selected dose of the test compound.

benzodiazepine receptor = benzodiazepine receptor test (displacement of 3H-diazepam from rat brain receptors); format: binding; conditions: for Ki: 3H-diazepam, unit inferred; for Inhibition % of the 3H diazepam binding: test compound at 3,6 μM
Experimental: The anti-anxiety activity of the compounds of the present invention was first detected by submitting some representative compounds to the benzodiazepine receptor test. […] Our experiments were carried out by following the method described by H. Moand T. Okada in Life Sciences, Vol. 20, 2101-2110 (1977).
of the test compound of 3,6 μM.

rats = experiment: conflict test in rats (punished responding, Vogel method as modified by Lippa); format: in vivo, rat; conditions: i.p., 60 minutes after administration; for minimal effective dose: Rattus norvegicus, ip, 1 h, read-out: MED (minimal effective dose which significantly increased the number of shocks)
Experimental: The ability of the compounds of the present invention to increase punished responding in animals in a conflict situation, a procedure with high validity for predicting the anxiolytic effect of drugs, was assessed by testing these compounds in rats according to the method described by J. R. Vogel, B. Beer, D. E. Clody in Psycopharmacologia 21, 1-7, (1971) as modified by A. S. Lippa et al., in "Anxiolytics, Industrial Pharmacology",Vol. 3, Futura Publishing, 1979, pages 41-81.
Briefly, rats are deprived of water for 48 hours and deprived of food for 20 hours prior to testing. Sixty minutes after administration of the test compound each rat is placed in an specially equipped cage. A glucose solution is available from a tap located in the rear of the cage. A constant pulsating shocking current is connected between the grid floor and the tap. Each rat is allowed 20 seconds of non-shocked drinking, then cycles of 5 seconds shock-off and 5 seconds shock-on began. During the shock-on period each lick on the top is accompanied by shock. The number of shocks received by each animal is recorded and minimal effective doses are determined.

[3] = 100 mg/kg (highest dose tested)

Compound | prevention of seizures (bicuculline) (mice [1]; 100 mg/kg) | prevention of tonic extensor seizures (pentylenetetrazole) (mice [2]; 50 mg/kg (highest dose tested)) | Ki (benzodiazepine receptor) | minimal effective dose (rats) | Inhibition % of the 3H diazepam binding (benzodiazepine receptor) | other results
COc1ccc(-c2cc3nc(N(C)C)c4ccccc4c3nn2)cc1 [Example 13, N,N-dimethyl-3-(4-methoxyphenyl)pyridazino[4,3-c]isoquinolin-6-amine] | failed to prevent seizures | uneffective | 63.3 nM | 10 mg/kg | – | –
COCCN(CCOC)c1nc2cc(-c3ccc(OC)cc3)nnc2c2ccccc12 [Example 15, N,N-bis(2-methoxyethyl)-3-(4-methoxyphenyl)pyridazino[4,3-c]isoquinolin-6-amine] | failed to prevent seizures | uneffective | 1180 nM | 10 mg/kg | – | –
c1ccc(-c2cc3nc(N4CCCC4)c4ccccc4c3nn2)cc1 [Example 5, 3-phenyl-6-(1-pyrrolidinyl)pyridazino-[4,3-c]isoquinoline] | – | – | 11.4 nM | 5 mg/kg | – | prevention of seizures (bicuculline) (mice [1]; 50 mg/kg): uneffective; prevention of tonic extensor seizures (pentylenetetrazole) (mice [2]; [3]): failed to prevent tonic extensor seizures
CC(O)CN(C)c1nc2cc(-c3ccccc3)nnc2c2ccccc12 (centres unmarked) [Example 4, 1-[(3-Phenyl-pyridazino[4,3-c]isoquinolin-6-yl)methylamino]-2-propanol] | – | – | 136 nM | 30 mg/kg | – | prevention of seizures (bicuculline) (mice [1]; 50 mg/kg): uneffective; prevention of tonic extensor seizures (pentylenetetrazole) (mice [2]; [3]): failed to prevent tonic extensor seizures
CCOc1nc2cc(-c3ccccc3)nnc2c2ccccc12 [Example 9, 6-Ethoxy-3-phenyl-pyridazino [4,3-c]isoquinoline] | – | – | 1480 nM | – | – | –
COCCOc1nc2cc(-c3ccc(OC)cc3)nnc2c2ccccc12 [Example 24, 6-(2-Methoxyethoxy)-3-(4-methoxyphenyl)pyridazino[4,3-c]isoquinoline] | – | – | – | – | -47% | –
c1ccc(-c2cc3nc(N4CCOCC4)c4ccccc4c3nn2)cc1 [Example 6, 3-Phenyl-6-(4-morpholinyl)pyridazino[4,3-c]-isoquinoline] | – | – | 152 nM | 15 mg/kg | – | prevention of seizures (bicuculline) (mice [1]; 50 mg/kg): uneffective; prevention of tonic extensor seizures (pentylenetetrazole) (mice [2]; [3]): failed to prevent tonic extensor seizures
CCOC(=O)C1CCN(c2nc3cc(-c4ccc(OC)cc4)nnc3c3ccccc23)CC1 [Example 21] | – | – | – | – | -39% | –
COc1ccc(-c2cc3nc(N4CCCCC4)c4ccccc4c3nn2)cc1 [Example 19, 3-(4-Methoxyphenyl)-6-(1-piperidinyl)-pyridazino[4,3-c]isoquinoline] | failed to prevent seizures | uneffective | – | 10 mg/kg | -70% | –
Clc1nc2cc(-c3ccccc3)nnc2c2ccccc12 [Example 1, 6-Chloro-3-phenyl-pyridazino-[4,3-c]-isoquinoline] | – | – | – | – | -36% | –
COc1ccc(-c2cc3nc(N4CCOCC4)c4ccccc4c3nn2)cc1 [Example 20, 3-(4-Methoxyphenyl)-6-(4-morpholinyl)-pyridazino[4,3-c]isoquinoline] | failed to prevent seizures | uneffective | – | 30 mg/kg | -76% | –
CN1C(=O)CN=C(c2ccccc2)c2cc(Cl)ccc21 [Diazepam, reference compound] | – | – | – | – | – | ED50 (mice [1]; Mus musculus, ip, 0.5 h, i.p., same experiment, read-out: ED50 (dose which prevents tonic extensor seizures in 50% of the treated animals), bicuculline): 0.18 mg/kg; ED50 (mice [2]; Mus musculus, ip, 0.5 h, i.p., same experiment, read-out: ED50 (dose which prevents tonic extension seizures in 50% of the treated animals), pentylenetetrazole): 0.2 mg/kg
3-Methyl-pyridazino[4,3-c]isoquinoline [Example 32] | failed to prevent seizures | uneffective | 245 nM | – | – | MED (minimal effective dose which significantly increased the number of shocks) (rats): 20 Mg/Kg
CCOC(=O)N1CCN(c2nc3cc(-c4ccc(OC)cc4)nnc3c3ccccc23)CC1 [Example 22] | – | – | – | – | -61% | –
COc1ccc(-c2cc3nc(N(C)CC(C)O)c4ccccc4c3nn2)cc1 (centres unmarked) [Example 14] | failed to prevent seizures | uneffective | 221 nM | 30 mg/kg | – | –
CCOC(=O)CCCN(C)c1nc2cc(-c3ccc(OC)cc3)nnc2c2ccccc12 [Example 16] | – | – | – | – | -69% | –
CCN(C)c1nc2cc(-c3ccccc3)nnc2c2ccccc12 [Example 3, N-ethyl-3-phenyl-N-methylpyridazino-[4,3-c]-isoquinolin-6-amine] | – | – | 65.2 nM | 10 mg/kg | – | prevention of seizures (bicuculline) (mice [1]; 50 mg/kg): uneffective; prevention of tonic extensor seizures (pentylenetetrazole) (mice [2]; [3]): failed to prevent tonic extensor seizures
COc1ccc(-c2cc3nc(N4CCCC4)c4ccccc4c3nn2)cc1 [Example 18] | failed to prevent seizures | uneffective | 18.7 nM | 20 mg/kg | – | –
CN(C)c1nc2cc(-c3ccccc3)nnc2c2ccccc12 [Example 2, 3-Phenyl-N,N-dimethyl-pyridazino-[4,3-c]-isoquinolin-6-amine] | failed to prevent seizures | uneffective | 28.4 nM | 10 mg/kg | – | –
Clc1ccc(-c2cc3nc(N4CCCC4)c4ccccc4c3nn2)cc1 [Example 27, 3-(4-Chlorophenyl)-6-(l-pyrrolidinyl)pyridazino[4,3-c]isoquinoline] | – | – | – | – | -63% | –
COc1ccc(-c2cc3nc(N4CCC4)c4ccccc4c3nn2)cc1 [Example 17, 6-(1-Azetidinyl)-3-(4-methoxyphenyl)pyridazino[4,3-c]isoquinoline] | failed to prevent seizures | uneffective | 130 nM | 30 mg/kg | – | –
CC(C)Oc1nc2cc(-c3ccccc3)nnc2c2ccccc12 [Example 10] | – | – | 1900 nM | – | – | –
